Measurements taken from patent US10444228B2, “Method of screening a candidate compound for inducing bile canalicular function disorders” (Biopredic International, priority 2014, dated 2019).

How the values were obtained:
Type in all cases: cell-based, human
[1] = tested on: differentiated HepaRG cells (bile canalicular lumen); experiment: Bile canaliculi lumen morphology by F-actin (phalloidin) / CDFDA imaging; conditions: for change of bile canaliculus lumen (constriction or swelling): Example 1, 2 h exposure, F-actin phalloidin staining; for change of bile canaliculus lumen (constriction or swelling) / change of biliary lumen (constriction or swelling): differentiated HepaRG cells; for induction of cholestasis (phenotype with swollen lumen) / change of biliary lumen (constriction or swelling): Example 2; for induction of cholestasis (phenotype with swollen lumen): HepaRG cells; for change of biliary lumen (constriction or swelling): F-actin phalloidin and CDFDA staining
Experimental: Two week DMSO-treated HepaRG cultures were exposed to 50 μM CPZ for 2 h and analyzed at different times during exposure. Constriction was evidenced by F-actin staining using phalloidin.
Comparison of the cytoskeleton organization of control cells versus CPZ and Y27632 treated cultures for 2 h. Fibers of F-actin accumulated at the biliary were labelling by phalloidin and counterstaining of nuclei was performed by Hoechst staining.
ii)—Analysis of the F-actin organization and biliary lumen changes using phalloidin and fluorescent CDFDA staining. After exposure to the candidate compounds, cells were washed twice, fixed with Paraformaldehyde (4%) fixative for 20 min, washed and stained with phalloidin for 10 min. For CDFDA staining, details are provided below.
Images obtained on microscope were used for calculating the size of the biliary lumen after treatment. Appropriate algorithm has been developed for quantification using Cellomics equipment.

Rho-kinase = Rho-kinase activity (Merck-Millipore kit) in treated cell lysates; conditions: differentiated HepaRG cells, 2 h, 1-50 μM
Experimental: Differentiated HepaRG cells were exposed to increased doses of CPZ (from 1-50 μM) for 2 h and Rho-kinase activity was measured (kit Merck-Millipore) according to manufacturer. Untreated cells and cells exposed to the Rho-kinase inhibitor Y27632 (10 μM) were used for controls.

ZO-1 = experiment: Immunolocalization of junctional protein ZO-1; conditions: treated HepaRG cultures
HepaRG cells = experiment: Accumulation of labelled taurocholate in cells including canaliculi space; conditions: increased concentrations, compared to control
Source text: The data also provides information related to junctional complex organization and the role of metalloproteinases in controlling permeability.

[2] = tested on: differentiated HepaRG cells (canalicular clearance); experiment: Biliary clearance activity with CDFDA marker compound; conditions: versus control cells
Experimental: The first step was incubation with the marker compound. CDFDA was preferentially used. After washing, differentiated cells plated in wells from 24 well-plates, were washed with HBSS buffer twice and incubated with 250 μl of CDFDA solution prepared at the final concentration of 3 μM in HBSS buffer containing Ca++ buffer (pH 7.4). After 30 min cells were washed with the same buffer. […] Quantification of the fluorescent dye into the medium is performed. A comparative evolution was established between control (untreated) and CPZ- and EF-treated cells. […] Calculation of the amount of released fluorescent dye molecules was performed by spectrometry and the canalicular clearance efficiency (CCE) was determined per time unit.

[3] = tested on: differentiated HepaRG cells (canalicular clearance); experiment: Biliary clearance with Rhodamin 123 marker compound
Experimental: Another assay was performed with Rhodamin 123 as marker compound.

[4] = tested on: HepaRG cells (canalicular efflux); experiment: Efflux of [3H]-taurocholate
Experimental: Efflux of Taurocholate (TA). Cells were first exposed to [3H]-TA for 30 min, then washed with PBS and incubated with or without CPZ at different time points (from 0 to 6 hours) in a standard buffer with Ca2+ and Mg2+. After the incubation time, cells were washed with PBS and incubated for 5 min with a Ca2+ and Mg2+− free buffer in order to disrupt the canalicular tight junctions. Then they were scraped in 0.1 N NaOH; the remaining radiolabeled substrate was measured through scintillation counting to determinate TA efflux. To discriminate between basolateral and canalicular efflux, cells were incubated in parallel in either standard or Ca2+ and Mg2+-free buffer for 30 minutes after TA uptake before measuring the remaining radiolabeled TA. Canalicular efflux was calculated using this equation: Canalicular efflux: Radioactivity in efflux mediumCa2+ and Mg2+ free buffer—Radioactivity in efflux medium Standard buffer. Differentiated cells were exposed or not to CPZ (50 μM for 2 h) before radiolabelled TA addition.

[5] = tested on: phosphorylated myosin light chain (P-MYL9); experiment: Western blotting of phosphorylated myosin light chain; conditions: for P-myosin (P-MYL9) level by western blotting: Example 2, after 1 hour
Experimental: Accumulation of phosphorylated light chain myosin was evidenced by western blotting technique in using the (P)-MYl2 antibody. Control cells, 2h-CPZ treated cells and 2h-y27632-treated cells were compared. Cell lysates were prepared.
Accumulation of the phosphorylated myosin light chain was performed by western blotting using p-Myl antibody.

Compound | change of bile canaliculus lumen (constriction or swelling) [1] | induction of cholestasis (phenotype with swollen lumen) [1] | change of biliary lumen (constriction or swelling) [1] | Rho-kinase activity (Rho-kinase) | distribution of ZO-1 at the biliary pole (ZO-1) | P-myosin (P-MYL9) level by western blotting [5] | other results
S=C=Nc1cccc2ccccc12 [ANIT] | inducing lumen constriction | inducing cholestasis | relaxation/swelling | activate the Rho-kinase activity | appears normal |  | 
C=CC[C@@H]1/C=C(\C)C[C@H](C)C[C@H](OC)[C@H]2O[C@@](O)(C(=O)C(=O)N3CCCC[C@H]3C(=O)O[C@H](/C(C)=C/[C@@H]3CC[C@@H](O)[C@H](OC)C3)[C@H](C)[C@@H](O)CC1=O)[C@H](C)C[C@@H]2OC [Fk, Tacrolimus] | inducing lumen constriction |  |  | activate the Rho-kinase activity |  |  | 
O=S(=O)(c1cccc2cnccc12)N1CCCNCC1 [Fasudil] |  | inducing cholestasis | relaxation/swelling |  | appears normal |  | accumulation of labelled taurocholate in cells including canaliculi space (HepaRG cells): abnormal accumulation of labelled taurocholate; accumulation of labelled taurocholate in cells including canaliculi space (HepaRG cells; listed as fasudil): highest values
C[C@@H](N)[C@H]1CC[C@H](C(=O)Nc2ccncc2)CC1 [Y27632] | swelling/relaxation |  | swelling |  |  | inhibition of P-myosin phosphorylation | accumulation of labelled taurocholate in cells including canaliculi space (HepaRG cells): abnormal accumulation of labelled taurocholate; clearance of CDFDA dye out of the canalicular space [2]: delay in biliary clearance; clearance of CDFDA dye out of the canalicular space ([2]; listed as EF): delay in the clearance of dye; clearance of Rhodamin 123 dye [3]: delay; taurocholate efflux with Rho-kinase inhibitor added to CPZ ([4]; in presence of CPZ): recovery of taurocholate efflux activity
C[C@H](CCC(=O)O)[C@H]1CC[C@H]2[C@@H]3CC[C@@H]4C[C@H](O)CC[C@]4(C)[C@H]3C[C@H](O)[C@]12C [DCA, Deoxycholic acid] |  | inducing cholestasis |  |  |  |  | 
Cyclosporin A [CsA] | inducing lumen constriction |  | lumen constriction | activate the Rho-kinase activity |  | accumulation of P-myosin | change of biliary lumen (constriction or swelling) ([1]; listed as cyclosporine A): constriction
COc1ccccc1Oc1c(NS(=O)(=O)c2ccc(C(C)(C)C)cc2)nc(-c2ncccn2)nc1OCCO [bosentan] |  |  | abnormal and prolonged canalicular lumen swelling |  |  |  | 
CN(C)CCCN1c2ccccc2Sc2ccc(Cl)cc21 [CPZ, chlorpromazine] | Constriction of canaliculus lumen |  | lumen constriction | dose-dependent activation of Rho-kinase | appears normal | accumulation of P-myosin | clearance of CDFDA dye out of the canalicular space [2]: delay in the clearance of dye; clearance of CDFDA dye out of the canalicular space ([2]; listed as chlorpromazine): delay of clearance; change of bile canaliculus lumen (constriction or swelling) ([1]; listed as chlorpromazine): constriction of the canaliculus lumen; change of biliary lumen (constriction or swelling) ([1]; listed as chlorpromazine): abnormal and permanent lumen constriction; clearance of Rhodamin 123 dye [3]: delay; taurocholate efflux ([4]; CPZ 50 μM): decrease of taurocholate efflux; myosin-light chain phosphorylation (immunoblotting) ([5]; Example 1, 2 h treated HepaRG cells): accumulation of myosin-light chain phosphorylation
CC(=O)/C(C)=N/O [BDM] |  |  |  |  |  | inhibition of P-myosin phosphorylation | 
